Laboratory results taken from US5519007A, “Lysosphingolipid derivatives” (Fidia, S.p.A., priority 1988, dated 1996).

Legend:
blood = assay: Hemolysis in blood of volunteers (cyanomethahemoglobin method); format: cell-based, human (volunteers); conditions: 45 minutes at 37° C., various concentrations, vs plasma negative control; FIGURE
[1] = Neurotoxicity of the compounds themselves in culture in the absence of glutamate; format: cell-based, Sprague-Dawley rats; conditions: rat, cerebellar granule cells; 24 hours, absence of glutamate; read-out: Neurotoxicity in 24 hours (ED50)
Description: (§1) The following experiments show studies carried out with N-dichloroacetylsphingosine, in comparison to sphingosine. In particular, their effects on PKC translocation and glutamate-induced neuronal toxicity in primary granule cell cultures were observed. Possible cytotoxic effects of the products were assessed according to their neurotoxic effects in cerebellar cells in culture, as well as hemolysis.
(§2) Primary cultures were prepared with granule cells from 8-day-old Sprague-Dawley rats (Zivic Miller). These cultures have a granule cell content of >90%, 5% of GABAergic neurons [Gallo V. et al., Proc. Natl. Acad. Sci. USA 79, 7919-7923 (1982)] and <5% of glia cells [Vaccarino F. M. et al., J. Neurosci. 7, 65-76 (1987)]. The cultures were used for the experiments on the 8th and 9th days in vitro.
(§3) On the 8th and 9th days in vitro, sphingosines and N-dichloroacetylsphingosines at various concentrations (1-100μM) were added to the cultures. In particular, monolayers of granule cells were pre-incubated with these compounds in Locke's solution (1 ml) for 2 hrs at 37° C. The sphingosine was dissolved in ethanol, stored as an equimolar complex with bovine serum albumin (BSA) with no fatty acids, and diluted directly with the Locke's solution used to preincubate the cells. The N-dichloroacetylsphingosine was dissolved in DMSO and diluted directly in Locke's solution (as noted above). Aliquots of the dilutions were dried in a flow of N2, after which Locke's solution was added until the desired concentration was reached.
(§4) Possibile cytotoxicity of the compounds themselves was calculated by assessing the toxicity in the […] cultures in the absence of glutamate. The experiments and techniques used were those described above, with the difference that glutamate was omitted. The possible hemolytic effects of the compounds were also assessed. Samples of blood were taken from 4 volunteers. Each sample was subdivided into three test tubes as follows: […]

protein-kinase C (PKC) = assay: Glutamate-induced PKC translocation, [3H]-P(BtO)2 bond in intact primary cerebellar granule cells; format: cell-based, Sprague-Dawley rats; conditions: for IC50: 2 h pre-incubation at 37° C., 1 μM glutamate, absence of Mg2+, read-out: PKC inhibition (ED50), glutamate-induced PKC translocation
Description: Translocation of PKC can be measured by assessment of the bond sites of 4-B-[3H]-phorbol 12,13-dibutyrate [3H]-P(Bt02) in intact cells.
(§5) Primary cultures were prepared with granule cells from 8-day-old Sprague-Dawley rats (Zivic Miller). […] The cultures were used for the experiments on the 8th and 9th days in vitro.
After 2 hours' incubation at 37° C. of the cells with or without the compounds (see above), the monolayers were washed once and the [^3 H]-P(BtO2) bond was assessed in the presence of 1 μM of glutamate and in the absence of Mg^2 +. […] Preliminary experiments have shown that balance is reached within 10 minutes, so the monolayers were incubated with [^3 H]-P(Bt0)2 for 15 minutes at 22° C. […] After incubation, the cells were washed three times with cold Locke's solution, and then suspended with 0.1M NaOH. Aliquots of the suspension were then used for protein determination (9) and liquid scintillation count. The nonspecific bond was determined in the presence of 2 μM phorbol 12-tetradecanoate 13-acetate (PTA).

PKC [2] = conditions: literature (Hannun, Merril, Wilson); cited from earlier work
[3H]-P(Bt02) bond = literature; cited from earlier work
granule cells = conditions: literature; cited from earlier work
[3] = test system: glutamate high affinity recognition site; conditions: literature; cited from earlier work
PKC [4] = conditions: granule cells; Vaccarino et al. 1987; cited from earlier work
[5] = test system: primary granule cell cultures; assay: Protection from glutamate-induced neuronal toxicity in primary granule cell cultures; format: cell-based, Sprague-Dawley rats
Description: as §5
Monolayers of intact granule cells were pre-incubated with various compounds at various concentrations for 2 hours at 37° C. […] Cell survival was assessed by histochemical techniques after 24 hours. In particular, cell viability was assessed after fluorescein staining, which gives green fluorescence to vital cells and red fluorescence to nonvital ones.

[6] = test system: cerebellar cells in culture; assay: Neurotoxicity of the compounds themselves in culture in the absence of glutamate; format: cell-based, Sprague-Dawley rats; conditions: compared with concentrations antagonizing PKC translocation and neuronal toxicity induced by glutamate
Description: as §1, §2, §3, §4

Molecule	Hemolysis (blood)	CC50 at 24 h [1]	IC50 (protein-kinase C (PKC))	Effect on activity and translocation of PKC (PKC [2])	Interference with the [3H]-P(Bt02) bond ([3H]-P(Bt02) bond)	Protection from glutamate-induced cell damage (granule cells)	Interference with the glutamate bond at its high affinity recognition site [3]	Effect on glutamate-induced translocation and activation of PKC (PKC [4])	Reduction of cell toxicity induced by glutamate (in words) ([5]; 50 μM glutamate)	EC50 ([5]; Rattus norvegicus, 2 h pre-incubation at 37° C., 50 μM glutamate 15 min without Mg2+, survival after 24 hours, read-out: Protection from glutamate (ED50), neuronal toxicity induced by glutamate)	Neurotoxicity of the compound itself (in words) [6]	Inhibition of glutamate-induced PKC translocation (in words) (protein-kinase C (PKC))
CCCCCCCCCCCCC/C=C/[C@@H](O)[C@@H](N)CO [Sphingosine]	contrary to sphingosine, does not cause hemolysis	10 to 20 µM	20 µM	inhibit the activity and translocation of PKC								
trisialosyl-N-tetra-glycosylceramide [GT1b]					do not interfere with the glutamate bond up to its high affinity recognition site or with the [3H]-P(Bt02) bond	offer protection from glutamate-induced cell damage	do not interfere with the glutamate bond up to its high affinity recognition site	inhibits the translocation and activation of PKC induced by glutamate				
CCCCCCCCCCCCC/C=C/[C@@H](O)[C@H](CO)NC(=O)C(Cl)Cl [N-dichloroacetylsphingosine, N-DICHLOROACETYL SPHINGOSINE]	does not cause hemolysis	> 100 µM	30 µM						significantly reducing cell toxicity induced by glutamate	30 µM	either no toxicity at all, or toxicity at significantly higher concentrations than those able to antagonize translocation induced by glutamate (column 1) as well as the neuronal toxicity induced by glutamate	inhibited glutamate-induced PKC translocation
monosialosyl-N-tetra-glycosylceramide [GM1]					do not interfere with the glutamate bond up to its high affinity recognition site or with the [3H]-P(Bt02) bond	offer protection from glutamate-induced cell damage	do not interfere with the glutamate bond up to its high affinity recognition site	inhibits the translocation and activation of PKC induced by glutamate				
